In patent publication US10155021B2, “Antimicrobial 4-oxoquinolizines” (Emergent Product Development Gaithersburg Inc., priority 2011, dated 2018):
Values after ≈ are worked out from the molar mass of the structure shown. Like-named read-outs stand apart in the source and are kept apart here.

What was measured:
B. anthracis = assay: microbe, parasite or virus in culture; format: cell-based; conditions: Bacillus anthracis, read-out: MIC B. anthracis
F. tularensis = assay: microbe, parasite or virus in culture; format: cell-based; conditions: Francisella tularensis, read-out: MIC F. tularensis
B. abortus = assay: microbe, parasite or virus in culture; format: cell-based; conditions: Brucella abortus, read-out: MIC B. abortus
B. pseudomallei = assay: microbe, parasite or virus in culture; format: cell-based; conditions: Burkholderia pseudomallei, read-out: MIC B. pseudomallei
B. thailandensis = assay: microbe, parasite or virus in culture; format: cell-based, Burkholderia thailandensis
S. aureus 101 = assay: MIC, standard panel of Gram-positive and Gram-negative bacteria (CLSI); format: cell-based, Staphylococcus aureus; conditions: Staphylococcus aureus, 101; CAMHB; read-out: MIC S. aureus 101
E. faecium 19434 = assay: as above; format: cell-based, Enterococcus faecium; conditions: Enterococcus faecium, 19434; CAMHB; read-out: MIC E. faecium 19434
E. coli 25922 = assay: as above; format: cell-based, Escherichia coli; conditions: Escherichia coli, 25922; CAMHB; read-out: MIC E. coli 25922
P. aeruginosa 27853 = assay: as above; format: cell-based, Pseudomonas aeruginosa; conditions: Pseudomonas aeruginosa, 27853; CAMHB; read-out: MIC P. aeruginosa 27853
E. coli CTX-M-15 = assay: MIC, panel of quinolone-resistant strains (CLSI); format: cell-based; conditions: Escherichia coli, CTXM15; CIP R, ESBL
E. coli 2906 = assay: MIC, panel of quinolone-resistant strains (CLSI); format: cell-based; conditions: Escherichia coli, CIP R
Klebsiella ssp KPC-3 = assay: MIC, panel of quinolone-resistant strains (CLSI); format: cell-based, Klebsiella spp; conditions: KPC3, CIP R, ESBL
Pseudomonas ssp PER-1 = assay: MIC, panel of quinolone-resistant strains (CLSI); format: cell-based, Pseudomonas spp; conditions: PER1, CIP R, ESBL
P. aeruginosa 1388-3-02 = assay: MIC, panel of quinolone-resistant strains (CLSI); format: cell-based; conditions: Pseudomonas aeruginosa, 1388302; CIP R, POL R
P. aeruginosa 143-3-03 = assay: MIC, panel of quinolone-resistant strains (CLSI); format: cell-based; conditions: Pseudomonas aeruginosa, 143303; CIP I, POL R
S. pneumoniae 1027 = assay: MIC, panel of quinolone-resistant strains (CLSI); format: cell-based; conditions: Streptococcus pneumoniae, LEV R
[1] = test system: Acinetobacter spp. H064200250; assay: MIC determination for Acinetobacter strains (Example 3); format: cell-based, Acinetobacter sp.; conditions: LEV R, CIP R, MRP R, IMP I
[2] = test system: resistant strains of A. baumannii and one strain of Acinetobacter sp.; assay: MIC without and with sub-inhibitory polymyxin B, whole panel / MIC ranges (Example 4; also strains not listed separately); format: cell-based; conditions: for MIC: Acinetobacter baumannii
A. baumannii J2 [3] = assay: MIC without and with sub-inhibitory polymyxin B (Example 4); format: cell-based, Acinetobacter baumannii; conditions: A. baumannii J2; +[…] polymyxin B; 2nd experiment; visual reading
[4] = test system: Acinetobacter sp. (H064200250); assay: as above; format: cell-based; conditions: Acinetobacter, without polymyxin B, read-out: MIC without PB
A. baumannii J2 [5] = assay: Preliminary MBC without and with sub-inhibitory polymyxin B (Example 4); format: cell-based, Acinetobacter baumannii
[6] = test system: Acinetobacter sp. (H064200250); assay: as above; format: cell-based; conditions: Acinetobacter, read-out: MBC without PB
Description: The plates were incubated for 18-20 hours at 37° C. The MBC was read as the lowest concentration at which colony growth was ca. 90% less than the positive control (i.e. usually where single colonies or no colonies were observed).

A. baumannii ATCC 19606 [7] = assay: MIC determination for Acinetobacter strains (Example 3); format: cell-based; conditions: ATCC19606, reference strain
A. baumannii A489 [8] = assay: as above; format: cell-based; conditions: LEV R, CIP R, MRP R, IMP R, AMK R, TET R
A. baumannii A390 [9] = assay: as above; format: cell-based; conditions: LEV R, CIP R, MRP R, IPM I, AMK R, TET I
A. baumannii A472 [10] = assay: as above; format: cell-based; conditions: LEV R, CIP R, MRP I, IMP I, AMK R, TET R
A. baumannii A473 [11] = assay: as above; format: cell-based; conditions: LEV R, CIP R, MRP R, IMP R, AMK R, TET R
[12] = test system: 11 strains of A. baumannii and one strain of Acinetobacter sp.; assay: Preliminary MBC without and with sub-inhibitory polymyxin B, whole panel (Example 4; also strains not listed separately); format: cell-based; conditions: Acinetobacter baumannii
A. baumannii ATCC 19606 [13] = assay: MIC without and with sub-inhibitory polymyxin B (Example 4); format: cell-based, Acinetobacter baumannii; conditions: Acinetobacter baumannii, ATCC19606, A. baumannii ATCC 19606, without polymyxin B, read-out: MIC without PB
A. baumannii A390 [14] = assay: as above; format: cell-based, Acinetobacter baumannii; conditions: Acinetobacter baumannii, A390, A. baumannii A390, without polymyxin B, read-out: MIC without PB
A. baumannii A401 [15] = assay: as above; format: cell-based, Acinetobacter baumannii; conditions: Acinetobacter baumannii, A401, A baumannii A 401; without polymyxin B; 2nd experiment; visual reading; read-out: MIC without PB
A. baumannii A472 [16] = assay: as above; format: cell-based, Acinetobacter baumannii; conditions: Acinetobacter baumannii, A472, A. baumannii A472, without polymyxin B, read-out: MIC without PB
A. baumannii A473 [17] = assay: as above; format: cell-based, Acinetobacter baumannii; conditions: Acinetobacter baumannii, A473, A. baumannii A473; without polymyxin B; 1st experiment; read-out: MIC without PB
A. baumannii A489 [18] = assay: as above; format: cell-based, Acinetobacter baumannii; conditions: Acinetobacter baumannii, A489, A. baumannii A489, without polymyxin B, read-out: MIC without PB
A. baumannii ATCC 19606 [19] = assay: Preliminary MBC without and with sub-inhibitory polymyxin B (Example 4); format: cell-based, Acinetobacter baumannii; conditions: Acinetobacter baumannii, ATCC19606, read-out: MBC without PB, A. baumannii ATCC 19606, without polymyxin B, preliminary MBC
A. baumannii A329 = assay: as above; format: cell-based, Acinetobacter baumannii; conditions: Acinetobacter baumannii
A. baumannii A390 [20] = assay: as above; format: cell-based, Acinetobacter baumannii; conditions: Acinetobacter baumannii, A390, read-out: MBC without PB
A. baumannii A401 [21] = assay: as above; format: cell-based, Acinetobacter baumannii; conditions: Acinetobacter baumannii, A401, read-out: MBC without PB
A. baumannii A472 [22] = assay: as above; format: cell-based, Acinetobacter baumannii; conditions: Acinetobacter baumannii, A472, read-out: MBC without PB, A. baumannii A472, without polymyxin B, 2nd experiment
A. baumannii A489 [23] = assay: as above; format: cell-based, Acinetobacter baumannii; conditions: Acinetobacter baumannii, A489, read-out: MBC without PB, A. baumannii A489, without polymyxin B, 2nd experiment
[24] = Acinetobacter spp. H064200250 (OXA51), 2nd experiment, visual reading
[25] = Acinetobacter spp. H064200250, 1st experiment

## Cc1c(-c2ccc(CN)cc2)c(F)cn2c(=O)c(C(=O)O)cc(C3CC3)c12 [Compound 6, 8-(4-aminomethyl-phenyl)-1-cyclopropyl-7-fluoro-9-methyl-4-oxo-quinolizine-3-carboxylic acid]
B. anthracis
  MIC: 0.125 µg/mL (≈ 0.341 µM)
F. tularensis
  MIC: 0.125 µg/mL (≈ 0.341 µM)
B. abortus
  MIC: 0.5 µg/mL (≈ 1.36 µM)
B. pseudomallei
  MIC: 2 µg/mL (≈ 5.46 µM)
B. thailandensis; Burkholderia thailandensis, read-out: MIC90 B. thailandensis
  MIC90: 0.39 µg/mL (≈ 1.06 µM)
B. thailandensis; pH 7 versus pH 5
  Dilutions improvement shift on B. thailandensis MIC90 (between pH 7 and pH 5): No
S. aureus 101
  MIC: 2 µg/mL (≈ 5.46 µM)
E. faecium 19434
  MIC: 4 µg/mL (≈ 10.9 µM)
E. coli 25922
  MIC: < 0.03 µg/mL
P. aeruginosa 27853
  MIC: 2 µg/mL (≈ 5.46 µM)
E. coli CTX-M-15
  MIC: 16 µg/mL (≈ 43.7 µM)
E. coli 2906
  MIC: 16 µg/mL (≈ 43.7 µM)
Klebsiella ssp KPC-3
  MIC: 16 µg/mL (≈ 43.7 µM)
Pseudomonas ssp PER-1
  MIC: 16 µg/mL (≈ 43.7 µM)
P. aeruginosa 1388-3-02
  MIC: 32 µg/mL (≈ 87.3 µM)
P. aeruginosa 143-3-03
  MIC: 8 µg/mL (≈ 21.8 µM)
S. pneumoniae 1027
  MIC: 2 µg/mL (≈ 5.46 µM)
[1]
  MIC: 8 µg/mL (≈ 21.8 µM)
[2]; A. baumannii A14, without polymyxin B, 1st experiment, read-out: MIC without PB
  MIC: 32 µg/mL (≈ 87.3 µM)
[2]; NCTC13301, A. baumannii NCTC 13301, without polymyxin B, 1st experiment, read-out: MIC without PB
  MIC: 32 µg/mL (≈ 87.3 µM)
[2]; read-out: MIC range without PB 01-10-2008 n = 8, without polymyxin B, 1st experiment, 8 strains
  MIC: 4 to 32 µg/mL (≈ 10.9 to 87.3 µM)
A. baumannii J2 [3]
  MIC +[…] PB: 0.25 µg/mL (≈ 0.682 µM)
[4]; [24]
  MIC: 16 µg/mL (≈ 43.7 µM)
[4]; [25]
  MIC: 8 µg/mL (≈ 21.8 µM)
A. baumannii J2 [5]; A. baumannii J2, +[…] polymyxin B, 2nd experiment, preliminary MBC
  MBC +[…] PB: 0.25 µg/mL (≈ 0.682 µM)
[6]; Acinetobacter spp. H064200250 (OXA51), without polymyxin B, 2nd experiment, preliminary MBC
  MBC: > 32 µg/mL
[6]; Acinetobacter spp. H064200250, without polymyxin B, preliminary MBC, 1st experiment
  MBC: 8 µg/mL (≈ 21.8 µM)

## COc1c(N2C[C@@H]3CCCN[C@@H]3C2)c(F)cc2c(=O)c(C(=O)O)cn(C3CC3)c12 [Moxifloxacin, reference compound]
A. baumannii ATCC 19606 [7]
  MIC: 0.5 µg/mL (≈ 1.25 µM)
[1]
  MIC: 16 µg/mL (≈ 39.9 µM)
A. baumannii A489 [8]
  MIC: 16 µg/mL (≈ 39.9 µM)
A. baumannii A390 [9]
  MIC: 16 µg/mL (≈ 39.9 µM)
A. baumannii A472 [10]
  MIC: 16 µg/mL (≈ 39.9 µM)
A. baumannii A473 [11]
  MIC: 16 µg/mL (≈ 39.9 µM)
[2]
  fold greater activity (fold lower MIC) in presence of polymyxin B compared to without polymyxin B: not significantly affected
[2]; NCTC13301, A. baumannii NCTC 13301, without polymyxin B, 2nd experiment, visual reading, read-out: MIC without PB
  MIC: 64 µg/mL (≈ 159 µM)
[2]; without polymyxin B, 2nd experiment, 11 strains, read-out: MIC range without PB 14-10-2008 n = 11
  MIC: 8 to 64 µg/mL (≈ 19.9 to 159 µM)
[12]; NCTC13301, read-out: MBC without PB, A. baumannii NCTC 13301, without polymyxin B, 1st experiment
  MBC: 32 µg/mL (≈ 79.7 µM)
[12]; NCTC13301, read-out: MBC without PB, A. baumannii NCTC 13301, without polymyxin B, 2nd experiment
  MBC: 64 µg/mL (≈ 159 µM)
[12]; read-out: MBC without PB, A. baumannii A14, without polymyxin B, 1st experiment
  MBC: 32 µg/mL (≈ 79.7 µM)
[12]; read-out: MBC without PB, A. baumannii A14, without polymyxin B, 2nd experiment
  MBC: 32 µg/mL (≈ 79.7 µM)
A. baumannii ATCC 19606 [13]; 1st experiment
  MIC: 0.5 µg/mL (≈ 1.25 µM)
A. baumannii ATCC 19606 [13]; 2nd experiment, visual reading
  MIC: 1 µg/mL (≈ 2.49 µM)
[4]; [24]
  MIC: 16 µg/mL (≈ 39.9 µM)
[4]; [25]
  MIC: 16 µg/mL (≈ 39.9 µM)
A. baumannii A390 [14]; 1st experiment
  MIC: 16 µg/mL (≈ 39.9 µM)
A. baumannii A390 [14]; 2nd experiment, visual reading
  MIC: 16 µg/mL (≈ 39.9 µM)
A. baumannii A401 [15]
  MIC: 16 µg/mL (≈ 39.9 µM)
A. baumannii A472 [16]; 1st experiment
  MIC: 16 µg/mL (≈ 39.9 µM)
A. baumannii A472 [16]; 2nd experiment, visual reading
  MIC: 16 µg/mL (≈ 39.9 µM)
A. baumannii A473 [17]
  MIC: 16 µg/mL (≈ 39.9 µM)
A. baumannii A489 [18]; 1st experiment
  MIC: 16 µg/mL (≈ 39.9 µM)
A. baumannii A489 [18]; 2nd experiment, visual reading
  MIC: 16 µg/mL (≈ 39.9 µM)
A. baumannii ATCC 19606 [19]; 2nd experiment
  MBC: 1 µg/mL (≈ 2.49 µM)
A. baumannii ATCC 19606 [19]; 1st experiment
  MBC: 0.5 µg/mL (≈ 1.25 µM)
A. baumannii J2 [5]; Acinetobacter baumannii, J2, read-out: MBC without PB
  MBC: 32 µg/mL (≈ 79.7 µM)
[6]
  MBC: 16 µg/mL (≈ 39.9 µM)
A. baumannii A329; A329, read-out: MBC without PB, A. baumannii A329, without polymyxin B, 1st experiment
  MBC: 64 µg/mL (≈ 159 µM)
A. baumannii A329; A329, read-out: MBC without PB, A. baumannii A329, without polymyxin B, 2nd experiment
  MBC: 32 µg/mL (≈ 79.7 µM)
A. baumannii A390 [20]
  MBC: 16 µg/mL (≈ 39.9 µM)
A. baumannii A401 [21]
  MBC: 16 µg/mL (≈ 39.9 µM)
A. baumannii A472 [22]
  MBC: 16 µg/mL (≈ 39.9 µM)
A. baumannii A489 [23]
  MBC: 16 µg/mL (≈ 39.9 µM)
